In patent US8703815B2, “Small molecules that covalently modify transthyretin” (The Scripps Research Institute, priority 2009, dated 2014):
Like-named read-outs stand apart in the source and are kept apart here.

How the values were obtained:
WT-TTR [1] = biological target: T1, WT-TTR (Homo sapiens, UniProt P02766); assay: RP-HPLC analysis of conjugation to recombinant WT-TTR; format: binding; settings: data not shown
T1 construct: composed of 127-residue β-sheet-rich subunits; made in house; host or cells: E. coli
Description: The ability of candidate covalent kinetic stabilizers Compounds 1-4 to form a chemoselective amide bond with the K15 residue of WT-TTR was assessed by incubating the recombinant WT-TTR tetramer (3.6 μM) with Compounds 1-4 (7.2 μM, the minimum concentration required to covalently modify both T4 binding sites) for 18 hours at 25° C. The stilbene-TTR conjugate was quantified by reverse-phase (RP)-HPLC using a denaturing acetonitrile gradient.
Recombinant WT-TTR was expressed as described previously [Lashuel et al., Biochemistry 38:13560-13573 (1999)]. For analysis of test compounds with TTR, each compound (1.5 μL in DMSO, 1.44 mM) was added to 300 μL of WT-TTR or K15A mutant TTR (3.6 μM, 10 mM sodium phosphate, 100 mM KCl, 1 mM EDTA, pH 7.0). The samples were vortexed, and incubated for 18 hours at 25° C. Reverse phase high performance liquid chromatography (RP-HPLC) was performed on a Water 600 E multi-solvent delivery system, using a Waters 486 tunable absorbance detector, a 717 autosampler, and a ThermoHypersil Keystone Betabasic-18 column μ150 Å pore size, 3 μm particle size, and mobile phase A; 0.1% TFA in 95% H2O+5% CH3CN and mobile phase B, 0.1% TFA in 95% CH3CN+5% H2O). Linear gradients were run from 100:0 to 0:100 A:B for 27 minutes.

[2] = system: familial amyloid polyneuropathy (FAP); settings: phase II/III placebo-controlled; cited from earlier work
[3] = system: WT-TTR cytotoxicity in human IMR-32 neuroblastoma cells; settings: cited from earlier work
K15A-TTR [4] = biological target: T2, K15A-TTR (Homo sapiens, UniProt P02766, K35A); assay: Acid-mediated K15A-TTR fibril formation with non-covalent stabilizers; format: biochemical; settings: compound 7.2 μM, 72 hours, pH 4.4
T2 construct: composed of 127-residue β-sheet-rich subunits; made in house
Description: Compounds (5 μL of 1.44 mM solution in DMSO) were added to 495 μL of TTR (7.2 μM, in 10 mM sodium phosphate, 100 mM KCl, 1 mM EDTA, pH 7.0). The mixtures were vortexed and incubated (maintained) for 18 hours at 25° C. An acidic buffer solution (500 μL, 100 mM acetate, 100 mM KCl, 1 mM EDTA, pH 4.2) was added to obtain a final pH value of 4.4, and the mixtures were incubated at 37° C. for 72 hours without agitation. The solutions were vortexed to evenly distribute any precipitate, and turbidity was measured at 400 nm using a Hewlett Packard model 8453 UV-VIS Spectrophotometer.

[5] = system: WT-TTR cytotoxicity in human IMR-32 neuroblastoma cells; assay: Inhibition of WT-TTR cytotoxicity in IMR-32 cells (resazurin reduction); format: cell-based; settings: WT-TTR 8 μM, compounds 2, 4, 6 and 8 μM, 24 hours
Description: Cell viability was measured after 24 hours by a resazurin reduction assay.
(§1) The human neuroblastoma IMR-32 cell line (CCL-127 ATCC) was maintained in Opti-MEM® medium (Invitrogen), supplemented with 5% FBS, 1 mM Hepes buffer, 2 mM L-glutamine, 100 units/mL penicillin, 100 μg/mL streptomycin and 0.05 mg/mL CaCl2 (complete cell medium). Cells were seeded in black wall, clear bottom, tissue culture treated 96-well plates (Costar) at a density of 6,000 cells/well in complete cell medium and incubated overnight (about 18 hours) at 37° C.
(§2) Recombinant WT-TTR purified in the cold was used as the cytotoxic insult. The protein was buffer-exchanged in Hanks' Balanced Salt Solution (HBSS, Mediatech, Manassas, Va.) at 10° C. using a Centriprep® filter device (10 kDa MWCO, Millipore). Compounds (16 mM in DMSO) were diluted 1:1000 with WT-TTR (16 μM in HBSS, filter sterilized) or with HBSS only, vortexed and incubated for 18 hours at 37° C. WT-TTR (16 μM in HBSS) containing the same amount of DMSO was prepared in parallel and incubated under the same conditions.
(§3) The medium was removed from the cells and replaced immediately by the TTR/compound mixtures or HBSS previously diluted 1:1 in Opti-MEM® supplemented with 0.8 mg/mL BSA, 2 mM Hepes buffer, 4 mM L-glutamine, 200 units/mL penicillin, 200 μg/mL streptomycin and 0.1 mg/mL CaCl2. The cells were incubated 24 hours at 37° C. Cell viability was evaluated by a resazurin reduction assay.
(§4) Briefly, 10 μL of resazurin (500 μM, PBS) was added to each well and fluorescence quantified in a plate reader (Ex/Em 530/590 nm, Tecan Safire 2, Austria) after 1 hour of incubation at 37° C. Cell viability was calculated as percentage of fluorescence relative to cells treated only with vehicle (100% viability) after subtraction of blank fluorescence (wells without cells). Averages and standard errors from 2 independently performed studies, each performed at least in triplicate, were calculated using GraphPrism (San Diego, Calif., US).

IMR-32 cells = assay: Compound cytotoxicity to IMR-32 cells in the absence of WT-TTR; format: cell-based, human
Description: Metabolically active cells reduce the resazurin redox dye to resorufin, a soluble fluorescent compound. [O'Brien et al., Eur. J. Biochem. 267:5421-5426 (2002)] The percentage of viable cells was calculated relative to cells treated with vehicle only (cell culture media and DMSO=100% viable).
as §1, §2, §3, §4

K15A-TTR [6] = biological target: T2, K15A-TTR; assay: Fluorimetric assay with recombinant K15A-TTR; format: binding; settings: B2 7.2 μM
Description: [The source words this procedure for another variant and says it was used here with some conditions changed.] The excitation spectra are shown with dotted traces (λmax=328 nm), and emission spectra are adjacently (λmax=384 nm). Very low fluorescence resulted from 328 nm excitation of stilbene Compounds 4 or 2 alone in buffer (FIGS. 4A and 4B; traces substantially on the X-axis).
WT-TTR was expressed in an E. coli expression system and purified as described previously. [Lashuel et al., Biochemistry 1999, 38, 13560-13573] The covalent TTR modifiers (A1 or A2) or the non-covalent TTR ligand B2 (5 μL of a 1.44 mM solution in DMSO, final concentration: 7.2 μM) were added to 1 mL of a solution of WT-TTR homotetramer (0.2 mg/mL, 3.6 μM) in 10 mM phosphate, 100 mM KCl and 1 mM EDTA (pH 7.0 phosphate buffer) in a 2 mL Eppendorf tube. The samples were vortexed, and incubated for 18 h at 25° C. The fluorescence changes were monitored using a Varian Cary 50 spectrofluorometer at 20° C. in a 1 cm path length quartz cell. The excitation slit was set at 5 nm and the emission slit was set at […]. The samples were excited at 328 nm and the emission spectra were collected from 350 to 550 nm.
WT-TTR was expressed and purified from an E. coli expression system as described previously. [Lashuel et al., Biochemistry 1999, 38:13560]. The covalent modifiers (Compounds 4 or 2) or the non-covalent TTR ligand Compound B2 (5 μL of a 1.44 mM solution in DMSO) were added to 1 mL of a solution of WT-TTR (0.2 mg/mL, 3.6 μM) in 10 mM phosphate, 100 mM KCl and 1 mM EDTA (pH 7.0) in a 2 mL Eppendorf tube. The samples were vortexed, and incubated for 18 hours at 25° C. The fluorescence changes were monitored using a Varian Cary 50 spectrofluorometer at 20° C. in a 1 cm path length quartz cell. The excitation slits was set at 5 nm and the emission slits was set at […]. The samples were excited at 328 nm and the emission spectra were collected from 330 to 550 nm (FIG. 4). The time-dependent fluorescence changes were monitored in similar manner (FIG. 5).

[7] = Quantum yield measurement in buffer; format: physicochemical
Description: (§5) The covalent TTR modifier A1 or A2 or the non-covalent TTR ligand B2 (15 μL of a 1.44 mM solution in DMSO, final concentration: 7.2 μM) was added to 3 mL of a solution of WT-TTR homotetramer (0.2 mg/mL, 3.6 μM) in 10 mM phosphate, 100 mM KCl and 1 mM EDTA (pH 7.0 phosphate buffer). The samples were vortexed, and incubated for 18 hours at 25° C. Quantum yields were measured by following the instructions at the web site: jobinyvon.com/usadivisions/Fluorescence/applications/quantumyieldstrad.pdf. Quinine bisulfate in 0.5 M H2SO4 was used as a reference for comparison (Φf=0.546). [Crosby et al., J. Phys. Chem. 1971, 75, 991-1024.]

WT-TTR [8] = biological target: T1, WT-TTR; assay: Quantum yield measurement with WT-TTR; format: physicochemical; settings: compound 7.2 μM
Description: as §5

[9] = Photoisomerization upon irradiation (312 nm, 10 seconds); format: physicochemical; settings: 312 nm
Description: Although TTR can bind to small molecules composed of two aromatic rings when the tethered rings are up to 40° out of plane {based on TTR-stilbene crystal structures [Klabunde et al., Nat. Struct. Biol. 2000, 7, 312-321; Connelly et al., Curr. Opin. Struc. Biol. 2010, 20, 54-62; Johnson et al., J. Med. Chem. 2008, 51, 6348-6358; Choi et al., J. Am. Chem. Soc. 2010, 132, 1359-1370; Choi et al., Nat. Chem. Biol. 2010, 6, 133-139; Baures et al., Bioorg. Med. Chem. 1998, 6, 1389-1401; and Baures et al., Bioorg. Med. Chem. 1999, 7, 1339-1347]}, it would be energetically unfavorable to bind the excited singlet state in a conformation where the two aryl rings are oriented perpendicular to one another. Thus, we propose that the increase in fluorescence quantum yield of B2 from 0.09 in buffer to 0.55 in complex with TTR results from the resculpted excited singlet state energy surface of the stilbene in complex with TTR, such that the trans-conformer is the only state of relatively low potential energy [Gorner, H.; Kuhn, H. J. Adv, Photochem. 1995, 19, 1-117; Malkin et al., J. Phys. Chem. 1964, 68, 1153-1163; Saltiel, J. J. Am. Chem. Soc. 1967, 89, 1036-1037; Saltiel et al., J. Am. Chem. Soc. 1972, 94, 6445-6457; Saltiel et al., J. Am. Chem. Soc. 1979, 101, 2982-2996; and Saltiel et al., J. Am. Chem. Soc. 1968, 90, 4759-4760] inhibiting photoisomerization-based relaxation of B2. That B2 binding to TTR inhibits B2 photoisomerization is consistent with the observation that the irradiation of B2 in buffer (Life Technologies, TFX-35M, 312 nm) for 10 seconds affords 60% of the cis isomer, along with other minor photoreaction products, whereas irradiation of B2 bound to TTR yields only 20% cis isomer.
It appears that the increase in fluorescence quantum yield of A2 from 0.00 in buffer to 0.27 in the TTR-(stilbene)n≦2 conjugate is only partly explained by the mechanism proposed for B2 [Gorner, H.; Kuhn, H. J. Adv, Photochem. 1995, 19, 1-117; Malkin et al., J. Phys. Chem. 1964, 68, 1153-1163; Saltiel, J. J. Am. Chem. Soc. 1967, 89, 1036-1037; Saltiel et al., J. Am. Chem. Soc. […]

WT-TTR [10] = biological target: T1, WT-TTR; assay: Acid-mediated WT-TTR fibril formation assay (turbidity at 400 nm); format: biochemical; settings: WT-TTR 3.6 μM, % fibril formation after 72 hours; read-out: IC50 (apparent), inhibition of WT-TTR amyloidogenesis
Description: The mixtures were vortexed and incubated (maintained) for 18 hours at 25° C.

Question: Which “modification yield of the WT-TTR subunits (in words)” value (WT-TTR [1]) does the source give for `Cc1cc(/C=C/c2ccc(C(=O)Oc3ccc(F)cc3)cc2)cc(C)c1O` [Compound 7] here?
Answer: Its value is “lower modification yield”.

Question: For `O=C(O)c1ccc2nc(-c3cc(Cl)cc(Cl)c3)oc2c1` [Tafamidis], which “clinical efficacy in familial amyloid polyneuropathy” value [2] is on record?
Answer: The value was “halt the progression of familial amyloid polyneuropathy”.

Question: Which “inhibition of amyloid-formation-associated cytotoxicity (literature)” value [3] does the source give for `Oc1ccc(C=Cc2cc(O)cc(O)c2)cc1` [resveratrol] here?
Answer: The value was “known to inhibit amyloid-formation-associated cytotoxicity”.

Question: What does the source list for `Cc1cc(/C=C/c2ccccc2)cc(C)c1O` [Compound 9, reference compound]?
Answer: stabilization of K15A-TTR (in words) (K15A-TTR [4]): additional stabilization of K15A-TTR was observed; inhibition of WT-TTR cytotoxicity to IMR-32 cells (in words) [5]: clearly and dose-dependently inhibits IMR-32 cytotoxicity; cytotoxicity to IMR-32 cells in the absence of WT-TTR (IMR-32 cells; human, IMR-32 neuroblastoma cells, 24 h, 8 µM): None of these compounds were cytotoxic to IMR-32 cells

Question: With `CCCNC(=O)c1cc(/C=C/c2cc(C)c(O)c(C)c2)cc(N(C)C)c1` [Compound B2, (E)-3-(dimethylamino)-5-(4-hydroxy-3,5-dimethylstyryl)-N-propylbenzamide] as the compound, how does the “increase in fluorescence intensity upon binding to K15A-TTR (B2)” value (K15A-TTR [6]) read?
Answer: The value was “approximately 4 fold”.

Question: What about the “fluorescence quantum yield in buffer” value [7] of the same compound?
Answer: Its value is 0.09.

Question: What about the “fluorescence quantum yield in complex or conjugate with TTR” value (WT-TTR [8]) of the same compound?
Answer: Its value is 0.55.

Question: What about the “% cis isomer after irradiation bound to TTR” value [9] of the same compound?
Answer: The value was 20%.

Question: And the “% cis isomer after irradiation in buffer” value [9]?
Answer: The value was 60%.

Question: For `Cc1cc(/C=C/c2ccc(C(=O)O)cc2)cc(C)c1O` [Compound 8, reference compound], which IC50 (WT-TTR [10]) is on record?
Answer: The IC50 was roughly 3 µM.

Question: What about the “stabilization of K15A-TTR (in words)” value (K15A-TTR [4]) of the same compound?
Answer: The value was “additional stabilization of K15A-TTR was observed”.

Question: What about the “inhibition of WT-TTR cytotoxicity to IMR-32 cells (in words)” value [5] of the same compound?
Answer: The value was “clearly and dose-dependently inhibits IMR-32 cytotoxicity”.

Question: And the “cytotoxicity to IMR-32 cells in the absence of WT-TTR” value (IMR-32 cells)?
Answer: Its value is “None of these compounds were cytotoxic to IMR-32 cells”.
